Tested on: NL-RLuc virus
Assay: Inhibition of HIV replication: NL-RLuc reporter virus in MT-2 cells, luciferase readout
Type: cell-based
Conditions: MT-2 cells infected with NL-RLuc virus, 5 days of incubation, 10% FBS, at least 2 experiments
Method in brief: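 Renilla luciferase reporter virus (NL4-3 nef replaced), produced in 293T cells, infected MT-2 cells with serial compound dilutions for 5 days in RPMI 1640 with 10% FBS, 10 mM HEPES pH 7.55. Luciferase measured; EC50 from median effect equation, at least 2 experiments.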

[1] = Human immunodeficiency virus 1, MT2, 120 h

Compound	EC50 [1] [nM]	EC50 [nM]
Cc1cc2nc3cn2c(c1[C@H](OC(C)(C)C)C(=O)O)N1CCC(C)(CC1)OCCCC[C@H](C)Oc1ccc(F)c(F)c1-c1cccc-3c1 [Example 46, (2S)-2-(tert-butoxy)-2-[(22S)-16,17-difluoro-4,22,28-trimethyl-21,27-dioxa-1,7,34-triazahexacyclo[26.2.2.1^6,^9.1^10,^14.0^2,^7.0^15,^20]tetratriaconta-2,4,6(34),8,10(33),11,13,15(20),16,18-decaen-3-yl]acetic acid]	4	–
Cc1c([C@H](OC(C)(C)C)C(=O)O)c2n3cc(nc3c1C)-c1cccc(c1)-c1c(ccc(F)c1F)O[C@@H](C)CCCCOC1(C)CCN2CC1 [Example 47, (2S)-2-(tert-Butoxy)-2-[(22S)-16,17-difluoro-4,5,22,28-tetramethyl-21,27-dioxa-1,7,34-triazahexacyclo[26.2.2.1^6,^9.1^10,^14.0^2,^7.0^15,^20]tetratriaconta-2,4,6(34),8,10(33),11,13,15(20),16,18-decaen-3-yl]acetic acid]	7	–
C=C(C)c1c(C)c([C@H](OC(C)(C)C)C(=O)O)c2n3cc(nc13)-c1cccc(c1)-c1cc(F)ccc1O[C@@H](C)CCCCOC1(C)CCN2CC1 [Example 48, (2S)-2-(tert-Butoxy)-2-[(22S)-17-fluoro-4,22,28-trimethyl-5-(prop-1-en-2-yl)-21,27-dioxa-1,7,34-triazahexacyclo[26.2.2.1^6,^9.1^10,^14.0^2,^7.0^15,^20]tetratriaconta-2,4,6(34),8,10(33),11,13,15(20),16,18-decaen-3-yl]acetic acid]	24	–
Cc1c([C@H](OC(C)(C)C)C(=O)O)c2n3cc(nc3c1C(C)O)-c1cccc(c1)-c1c(ccc(F)c1F)O[C@@H](C)CCCCOC1(C)CCN2CC1 (stereo partly drawn) [Example 49, (2S)-2-(tert-Butoxy)-2-[(22S)-16,17-difluoro-5-(1-hydroxyethyl)-4,22,28-trimethyl-21,27-dioxa-1,7,34-triazahexacyclo[26.2.2.1^6,^9.1^10,^14.0^2,^7.0^15,^20]tetratriaconta-2,4,6(34),8,10(33),11,13,15(20),16,18-decaen-3-yl]acetic acid]	–	2
Cc1c([C@H](OC(C)(C)C)C(=O)O)c2n3cc(nc3c1C(C)O)-c1cccc(c1)-c1c(ccc(F)c1F)O[C@@H](C)CCCCOC1(C)CCN2CC1 (stereo partly drawn) [Example 50, (2S)-2-(tert-Butoxy)-2-[(22S)-16,17-difluoro-5-(1-hydroxyethyl)-4,22,28-trimethyl-21,27-dioxa-1,7,34-triazahexacyclo[26.2.2.1^6,^9.1^10,^14.0^2,^7.0^15,^20]tetratriaconta-2,4,6(34),8,10(33),11,13,15(20),16,18-decaen-3-yl]acetic acid]	–	10
Cc1c([C@H](OC(C)(C)C)C(=O)O)c2n3cc(nc3c1CO)-c1cccc(c1)-c1cc(F)ccc1O[C@@H](C)CCCCOC1(C)CCN2CC1 [Example 53, (2S)-2-(tert-Butoxy)-2-[(22S)-17-fluoro-5-(hydroxymethyl)-4,22,28-trimethyl-21,27-dioxa-1,7,34-triazahexacyclo[26.2.2.1^6,^9.1^10,^14.0^2,^7.0^15,^20]tetratriaconta-2,4,6(34),8,10(33),11,13,15(20),16,18-decaen-3-yl]acetic acid]	8	–
Cc1c([C@H](OC(C)(C)C)C(=O)O)c2n3cc(nc3c1CO)-c1cccc(c1)-c1c(ccc(F)c1F)O[C@@H](C)CCCCOC1(C)CCN2CC1 [Example 54, (2S)-2-(tert-Butoxy)-2-[(22S)-16,17-difluoro-5-(hydroxymethyl)-4,22,28-trimethyl-21,27-dioxa-1,7,34-triazahexacyclo[26.2.2.1^6,^9.1^10,^14.0^2,^7.0^15,^20]tetratriaconta-2,4,6(34),8,10(33),11,13,15(20),16,18-decaen-3-yl]acetic acid]	4	–
